According to US9096584B2, “Compounds useful as inhibitors of ATR kinase” (Vertex Pharmaceuticals Incorporated, priority 2010, dated 2015):
pKi: −log10 of the molar value.

Columns and labels:
full-length ATR = target: T1, full-length ATR (Homo sapiens, UniProt Q13535); assay: ATR Inhibition Assay (radioactive-phosphate incorporation); format: biochemical
T1 construct: Assays were carried out at 25° C. in the presence of 5 nM full-length ATR
Description: Compounds were screened for their ability to inhibit ATR kinase using a radioactive-phosphate incorporation assay. Assays were carried out in a mixture of 50 mM Tris/HCl (pH 7.5), 10 mM MgCl2 and 1 mM DTT. Final substrate concentrations were 10 μM [γ-33P]ATP (3mCi 33P ATP/mmol ATP, Perkin Elmer) and 800 μM target peptide ([…] (SEQ ID NO: 1)).
Assays were carried out at 25° C. in the presence of 5 nM full-length ATR. An assay stock buffer solution was prepared containing all of the reagents listed above, with the exception of ATP and the test compound of interest. 13.5 μL of the stock solution was placed in a 96 well plate followed by addition of 2 μL of DMSO stock containing serial dilutions of the test compound (typically starting from a final concentration of 15 μM with 3-fold serial dilutions) in duplicate (final DMSO concentration 7%). The plate was pre-incubated for 10 minutes at 25° C. and the reaction initiated by addition of 15 μL [γ-33P]ATP (final concentration 10 μM).
The reaction was stopped after […] by the addition of 30 μL 0.1M phosphoric acid containing 2 mM ATP. A multiscreen phosphocellulose filter 96-well plate (Millipore, Cat no. MAPHN0B50) was pretreated with 100 μL 0.2M phosphoric acid prior to the addition of 45 μL of the stopped assay mixture. The plate was washed with 5×200 μL 0.2M phosphoric acid. After drying, 100 μL Optiphase ‘SuperMix’ liquid scintillation cocktail (Perkin Elmer) was added to the well prior to scintillation counting (1450 Microbeta Liquid Scintillation Counter, Wallac).
After removing mean background values for all of the data points, Ki(app) data were calculated from non-linear regression analysis of the initial rate data using the Prism software package (GraphPad Prism version 3.0cx for Macintosh, GraphPad Software, San Diego Calif., USA).
Below is a chart showing the ATR Inhibition Ki values of compounds of the disclosure.

[1] = tested on: HCT116 colorectal cancer cells; assay: Cisplatin Sensitization Assay (96 h cell viability MTS); format: cell-based; conditions: concentration of compound required to reduce the IC50 of Cisplatin alone by at least 3-fold, 96 h MTS
Description: Compounds can be screened for their ability to sensitize HCT116 colorectal cancer cells to Cisplatin using a 96 h cell viability (MTS) assay. […] Compounds and Cisplatin are then both added simultaneously to the cell media in 2-fold serial dilutions from a top final concentration of 10 μM as a full matrix of concentrations in a final cell volume of 200 μl, and the cells are then incubated at 37° C. in 5% CO2. After 96 h, 40 μl of MTS reagent (Promega G358a) is added to each well and the cells are incubated for 1 h at 37° C. in 5% CO2.

T1 sequence (Q13535 whole entry): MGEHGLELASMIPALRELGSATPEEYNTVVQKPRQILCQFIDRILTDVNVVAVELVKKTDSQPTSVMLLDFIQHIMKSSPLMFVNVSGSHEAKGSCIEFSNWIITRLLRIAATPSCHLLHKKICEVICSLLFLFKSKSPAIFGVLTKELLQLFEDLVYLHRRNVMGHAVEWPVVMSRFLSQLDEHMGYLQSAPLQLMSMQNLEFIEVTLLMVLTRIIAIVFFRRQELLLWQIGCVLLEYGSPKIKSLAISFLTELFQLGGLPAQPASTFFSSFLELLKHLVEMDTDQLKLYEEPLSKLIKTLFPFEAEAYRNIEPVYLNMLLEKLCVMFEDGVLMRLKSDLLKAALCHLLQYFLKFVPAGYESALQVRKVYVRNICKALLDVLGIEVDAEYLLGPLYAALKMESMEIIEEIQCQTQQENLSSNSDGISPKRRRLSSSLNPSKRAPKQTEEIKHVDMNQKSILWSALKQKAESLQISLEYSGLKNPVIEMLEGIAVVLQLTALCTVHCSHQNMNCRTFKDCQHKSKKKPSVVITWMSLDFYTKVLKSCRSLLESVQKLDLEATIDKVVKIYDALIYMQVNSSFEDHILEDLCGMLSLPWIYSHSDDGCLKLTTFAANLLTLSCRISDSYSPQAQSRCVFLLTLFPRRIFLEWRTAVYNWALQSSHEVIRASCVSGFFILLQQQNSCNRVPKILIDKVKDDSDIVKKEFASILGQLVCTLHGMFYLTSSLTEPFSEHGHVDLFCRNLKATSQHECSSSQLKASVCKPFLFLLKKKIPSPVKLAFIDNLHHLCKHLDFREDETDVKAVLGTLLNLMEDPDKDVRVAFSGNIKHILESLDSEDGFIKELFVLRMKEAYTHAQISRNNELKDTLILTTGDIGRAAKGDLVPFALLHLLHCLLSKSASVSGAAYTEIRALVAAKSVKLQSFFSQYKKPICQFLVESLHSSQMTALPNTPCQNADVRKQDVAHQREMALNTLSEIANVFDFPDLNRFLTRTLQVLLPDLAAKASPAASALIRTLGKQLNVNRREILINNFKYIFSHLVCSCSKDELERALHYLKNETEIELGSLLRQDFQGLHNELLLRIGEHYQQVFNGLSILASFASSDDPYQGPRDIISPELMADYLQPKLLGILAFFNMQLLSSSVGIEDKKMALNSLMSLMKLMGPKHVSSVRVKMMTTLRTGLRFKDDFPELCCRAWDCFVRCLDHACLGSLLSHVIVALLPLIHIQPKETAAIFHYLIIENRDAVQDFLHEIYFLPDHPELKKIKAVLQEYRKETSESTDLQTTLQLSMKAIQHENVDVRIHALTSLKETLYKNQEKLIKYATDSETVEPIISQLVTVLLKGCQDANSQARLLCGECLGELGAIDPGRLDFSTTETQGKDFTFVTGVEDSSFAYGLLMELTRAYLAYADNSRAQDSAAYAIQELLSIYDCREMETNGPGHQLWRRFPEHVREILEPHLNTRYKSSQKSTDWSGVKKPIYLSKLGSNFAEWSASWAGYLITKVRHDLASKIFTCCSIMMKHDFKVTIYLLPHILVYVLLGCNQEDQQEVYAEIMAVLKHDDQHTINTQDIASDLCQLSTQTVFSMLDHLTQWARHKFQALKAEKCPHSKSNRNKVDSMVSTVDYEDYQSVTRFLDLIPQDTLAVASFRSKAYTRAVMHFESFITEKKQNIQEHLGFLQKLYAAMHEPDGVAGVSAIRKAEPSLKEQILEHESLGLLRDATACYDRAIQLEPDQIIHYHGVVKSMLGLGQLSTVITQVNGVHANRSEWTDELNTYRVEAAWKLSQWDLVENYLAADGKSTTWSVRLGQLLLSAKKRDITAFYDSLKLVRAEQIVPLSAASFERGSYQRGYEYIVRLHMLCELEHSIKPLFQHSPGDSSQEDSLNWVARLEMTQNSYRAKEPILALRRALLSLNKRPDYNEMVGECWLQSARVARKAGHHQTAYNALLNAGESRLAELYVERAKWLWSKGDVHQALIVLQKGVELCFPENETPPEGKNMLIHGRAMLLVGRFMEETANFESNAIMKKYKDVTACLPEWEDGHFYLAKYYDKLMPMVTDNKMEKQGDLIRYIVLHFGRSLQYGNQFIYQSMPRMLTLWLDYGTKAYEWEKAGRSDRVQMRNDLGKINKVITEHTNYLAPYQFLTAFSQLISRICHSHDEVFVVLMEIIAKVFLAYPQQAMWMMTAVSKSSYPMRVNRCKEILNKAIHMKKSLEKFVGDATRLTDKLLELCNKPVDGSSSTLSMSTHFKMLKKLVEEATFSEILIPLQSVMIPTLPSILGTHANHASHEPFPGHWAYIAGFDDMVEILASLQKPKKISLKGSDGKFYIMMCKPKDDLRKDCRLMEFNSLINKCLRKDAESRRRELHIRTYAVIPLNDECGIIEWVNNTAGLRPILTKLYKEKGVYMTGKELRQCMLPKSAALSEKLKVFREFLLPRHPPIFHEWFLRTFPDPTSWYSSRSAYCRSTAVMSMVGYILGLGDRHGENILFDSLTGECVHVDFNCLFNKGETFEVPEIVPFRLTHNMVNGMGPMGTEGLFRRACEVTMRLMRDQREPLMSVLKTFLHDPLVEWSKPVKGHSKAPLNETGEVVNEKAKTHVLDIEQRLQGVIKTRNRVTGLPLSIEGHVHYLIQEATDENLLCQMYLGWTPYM

Compound	pKi (full-length ATR)	CP3 Shift [1]
CNCc1ccc(-c2nnc(-c3cc(-c4ccc(S(=O)(=O)[C@@H]5CCOC5)cc4)cnc3N)o2)cc1 [III-1, 3-[5-[4-(Methylaminomethyl)phenyl]-1,3,4-oxadiazol-2-yl]-5-[4-[(3R)-tetrahydrofuran-3-yl]sulfonylphenyl]pyridin-2-amine]	≥ 8.00	–
Nc1ncc(-c2ccc(C(=O)N3CCCNCC3)cc2)cc1-c1nnc(-c2ccccc2)o1 [III-2, [4-[6-Amino-5-(5-phenyl-1,3,4-oxadiazol-2-yl)-3-pyridyl]phenyl]-(1,4-diazepan-1-yl)methanone]	7.00 to 8.00	–
CS(=O)(=O)c1ccc(-c2cnc(N)c(-c3nnc(-c4ccccc4)o3)c2)cc1 [III-3, 5-(4-(Methylsulfonyl)phenyl)-3-(5-phenyl-1,3,4-oxadiazol-2-yl)pyridin-2-amine]	7.00 to 8.00	–
CCS(=O)(=O)N1CC=C(c2cnc(N)c(-c3nnc(-c4ccccc4)o3)c2)CC1 [III-4, 5-(1-Ethylsulfonyl-3,6-dihydro-2H-pyridin-4-yl)-3-(5-phenyl-1,3,4-oxadiazol-2-yl)pyridin-2-amine]	7.00 to 8.00	–
CNCc1ccc(-c2nnc(-c3cc(-c4cnc(S(=O)(=O)C(C)C)cn4)cnc3N)o2)cc1 [III-5, 5-(5-Isopropylsulfonylpyrazin-2-yl)-3-[5-[4-(methylaminomethyl)phenyl]-1,3,4-oxadiazol-2-yl]pyridin-2-amine]	≥ 8.00	–
Cc1ccc(-c2cc(-c3cc(-c4ccc(S(=O)(=O)C(C)C)cn4)cnc3N)on2)cc1 [III-6, 5-(5-Isopropylsulfonyl-2-pyridyl)-3-[3-(p-tolyl)isoxazol-5-yl]pyridin-2-amine]	7.00 to 8.00	–
Nc1ncc(-c2cccnc2)cc1C(=O)Nc1ccccc1 [III-7, 2-Amino-N-phenyl-5-(3-pyridyl)pyridine-3-carboxamide]	5.30 to 7.00	–
CNCc1ccc(-c2cc(-c3cc(-c4ccc(S(=O)(=O)C(C)C)cn4)cnc3N)on2)c(F)c1 [III-8, 3-[3-[2-Fluoro-4-(methylaminomethyl)phenyl]isoxazol-5-yl]-5-(5-isopropylsulfonyl-2-pyridyl)pyridin-2-amine]	≥ 8.00	.234 µM
CNCc1ccc(-c2nnc(-c3cc(-c4ccsc4)cnc3N)o2)cc1 [III-9, 3-[5-[4-(Methylaminomethyl)phenyl]-1,3,4-oxadiazol-2-yl]-5-(3-thienyl)pyridin-2-amine]	7.00 to 8.00	–
CNCc1ccc(-c2nnc(-c3cc(-c4ccc(S(=O)(=O)C(C)C)cn4)cnc3N)o2)cc1 [III-10, 5-(5-Isopropylsulfonyl-2-pyridyl)-3-[5-[4-(methylaminomethyl)phenyl]-1,3,4-oxadiazol-2-yl]pyridin-2-amine]	≥ 8.00	.078 µM
CNCc1ccc(-c2nnc(-c3cc(-c4ccc(S(=O)(=O)C(C)C)cc4)cnc3N)o2)cc1 [III-11, 5-(4-Isopropylsulfonylphenyl)-3-[5-[4-(methylaminomethyl)phenyl]-1,3,4-oxadiazol-2-yl]pyridin-2-amine]	≥ 8.00	.156 µM
CNCc1ccc(-c2cc(-c3cc(-c4ccc(S(=O)(=O)C(C)C)cn4)cnc3N)on2)cc1 [III-12, 5-(5-Isopropylsulfonyl-2-pyridyl)-3-[3-[4-(methylaminomethyl)phenyl]isoxazol-5-yl]pyridin-2-amine]	≥ 8.00	.156 µM
